Assays:
[1] = system: HT-29; experiment: Luminex 200 cytokine profiling of cell culture supernatant; format: cell-based, human; details: 1 μM or 5 μM, forty-eight hours
Experimental: (§1) Collection of cell culture supernatants used in cytokine measurements. Cells were plated at 3.5×10^4 cells in a 48-well plate (Thermo Fisher Scientific, Waltham, MA, USA) in complete medium and incubated at 37° C. with 5% CO2. At twenty-four hours after plating, almost all the tumor cells were adherent to the bottom of the flask and the complete medium was replaced with the drug-containing medium. Subsequently, the culture supernatants were collected after forty-eight hours of incubation and were frozen at −80° C. until the measurement of cytokines was performed. On the day of analysis, samples were thawed and centrifuged to remove cellular debris.
(§2) Human cytokine profiling. Human cell line culture supernatants were analyzed using an R&D systems Human Premixed Multi-Analyte Kit (R&D Systems, Inc., Minneapolis, MN, USA) and a Luminex 200 (RRID: SCR_018025) Instrument (LX200-XPON-RUO, Luminex Corporation, Austin, TX, USA) according to the manufacturer's instructions. Sample levels of TNF-α, 4-1BB/TNFRSF9/CD137, IL-8/CXCL8, Ferritin, IFN-β, IL-10, CCL2/JE/MCP-1, VEGF, CXCL13/BLC/BCA-1, IFN-γ, CCL20/MIP-3 α, CCL3/MIP-1 α, CCL22/MDC, CCL4/MIP-1 β, Fas Ligand/TNFSF6, IL-17/1L-17A, IL-2, BAFF/BLyS/TNFSF13B, GM-CSF, CXCLS/ENA-78, TRANCE/TNFSF11/RANK L, CXCL9/MIG, G-CSF, IFN-γ R1/CD119, VEGFR3/Flt-4, C-Reactive Protein/CRP, CXCL11/I-TAC, IL-21, CXCL14/BRAK, IL-6, Fas/TNFRSF6/CD95, TRAIL R3/TNFRSF10C, IL-4, CCL5/RANTES, PD-L1/137-H1, CCL7/MCP-3/MARC, Chitinase 3-like 1, CXCL10/IP-10/CRG-2, IL-1 μ/IL-1F2, IL-7, Prolactin, CCL8/MCP-2, TRAIL R2/TNFRSF10B, M-CSF, IL-15, Granzyme B, IFN-α, TREM-1, IL-12/1L-23 p40, TRAIL/TNFSF10, CCL11/Eotaxin, and 1L-18/1L-1F4. Quantitative analysis with 6 standards and a minimum of 50 counts per bead region was used with the Luminex to generate analyte values reported as picograms/milliliter (pg/mL). Sample concentrations less than the lower limit of detection for each particular analyte were recoded as the lower limit value divided by 10. Sample concentrations above the upper limit of detection for a particular analyte were recoded as the upper limit of detection.
(§3) Huntington, Louie, Zhou, & EI-Deiry, Oncotarget, 12, 1980-1991 (2021). The inventors in this EXAMPLE treated tumor cells (HCT-116, HT-29) with 1 μM or 5 μM elraglusib for forty-eight hours and subsequently analyzed the cell culture supernatant using Luminex 200 technology (FIG. 2H,I).

[2] = system: HCT-116; experiment: as above; format: cell-based, human; details: 1 μM or 5 μM, forty-eight hours
Experimental: as §1, §2, §3

[3] = system: KM12C; experiment: microarray analysis; format: cell-based, human; details: 1 μM, 24 hours, vs untreated
[4] = system: adult T-cell leukemia/lymphoma (ATLL); experiment: case of refractory ATLL treated in clinical trial NCT03678883; format: in vivo, human
Excerpt: This EXAMPLE discloses a case of adult T-cell leukemia/lymphoma (ATLL) treated with elraglusib. A patient developed diffuse lymphadenopathy. […] CSF was positive for ATLL involvement. Twenty-two months after the diagnosis of ATLL was confirmed, as a fourth-line therapy in the presence of actively progressing disease, the patient was enrolled a Phase I/II study investigating the safety and efficacy of elraglusib, a selective small molecule inhibitor of glycogen synthase kinase-3 beta (GSK-3β) as monotherapy or in combination with chemotherapy in refractory solid tumors and hematological malignancies (NCT03678883). The patient started treatment with single-agent elraglusib (12.37 mg/kg IV twice weekly: 21-day cycle). […] This stability was confirmed on CT imaging after five and seven cycles of therapy.

Cn1cc(C2=C(c3coc4ccc(F)cc34)C(=O)NC2=O)c2cc3c(cc21)OCO3 [elraglusib]
GDF-15 secretion [1]: decreased secretion | GM-CSF secretion [1]: decreased secretion | VEGF secretion [1]: decreased secretion | CCL5/RANTES in supernatant ([1]; cell line not given): downregulated | DcR3 in supernatant ([1]; cell line not given): downregulated | Fas in supernatant ([1]; cell line not given): downregulated | soluble PD-L1 (sPD-L1) in supernatant ([1]; cell line not given): downregulated | GDF-15 secretion [2]: decreased secretion | GM-CSF secretion [2]: decreased secretion | VEGF secretion [2]: decreased secretion | CCL5/RANTES in supernatant ([2]; cell line not given): downregulated | DcR3 in supernatant ([2]; cell line not given): downregulated | Fas in supernatant ([2]; cell line not given): downregulated | soluble PD-L1 (sPD-L1) in supernatant ([2]; cell line not given): downregulated | AGGF1 Fold Change [3]: −1.6 | BARD1 Fold Change [3]: −3.03 | BCL9 Fold Change [3]: −1.55 | BIK Fold Change [3]: 1.51 | BRAF Fold Change [3]: −2.05 | BRCA1 Fold Change [3]: −1.71 | BRD3 Fold Change [3]: −1.58 | CCND2 Fold Change [3]: −1.58 | CCNE1 Fold Change [3]: −1.57 | CCNE2 Fold Change [3]: −2.64 | CD109 Fold Change [3]: −2.09 | CDC25C Fold Change [3]: −1.55 | CDCA2 Fold Change [3]: −1.51 | CDK1 Fold Change [3]: −2 | CXCL1 Fold Change [3]: −1.53 | E2F7 Fold Change [3]: −2.5 | E2F8 Fold Change [3]: −3.16 | ERBB2IP Fold Change [3]: −1.88 | FZD3 Fold Change [3]: −1.76 | GDF15 Fold Change [3]: −2.29 | GZMA Fold Change [3]: 1.53 | IGF2BP2 Fold Change [3]: −1.51 | IL6ST Fold Change [3]: −1.88 | IL27RA Fold Change [3]: −1.72 | IL32 Fold Change [3]: 1.55 | IRF2BP2 Fold Change [3]: −1.6 | JMY Fold Change [3]: −2.03 | LTBP1 Fold Change [3]: −2.24 | MAP2K6 Fold Change [3]: −3.66 | MAP3K1 Fold Change [3]: −1.92 | MDM2 Fold Change [3]: −1.61 | MET Fold Change [3]: −1.79 | MKI67 Fold Change [3]: −1.53 | MTBP Fold Change [3]: −1.58 | MTDH Fold Change [3]: −1.74 | NFKBIA Fold Change [3]: −2.51 | NRP1 Fold Change [3]: −1.88 | TAB3 Fold Change [3]: −1.63 | TGFBR2 Fold Change [3]: −2.11 | TGFBR3 Fold Change [3]: −3.72 | TLR3 Fold Change [3]: −2.25 | TNFRSF1B Fold Change [3]: −1.56 | TNFRSF10A Fold Change [3]: −1.54 | TNFRSF11A Fold Change [3]: −1.64 | TNFRSF12A Fold Change [3]: 1.53 | TNIK Fold Change [3]: −1.59 | TRAF5 Fold Change [3]: −1.52 | TRAF6 Fold Change [3]: −1.57 | TRAIP Fold Change [3]: 1.53 | TRIB1 Fold Change [3]: −2.37 | tolerability ([4]; 12.37 mg/kg IV twice weekly): tolerated the treatment well without significant adverse effects | sIL-2 r serum concentration ([4]; after nineteen cycles of treatment, 9,043 ng/ml one month before treatment): 2,094 ng/ml | CT imaging response by RECIST Criteria ([4]; after ten cycles (seven months), 12.37 mg/kg IV twice weekly): partial response | CT imaging response ([4]; after two cycles, 12.37 mg/kg IV twice weekly, 21-day cycle): stable disease | duration of sustained reduction of peripheral blood ATLL cells ([4]; elraglusib monotherapy): fifteen

Reference: patent US20240041830A1, “CIRCULATING BIOMARKERS OF RESPONSE TO PD-1/PD-L1 BLOCKADE AND GSK-3 INHIBITION” (Brown University, priority 2022, published 2024)
